Assay results reported in patent publication US11187705B2, “Method for labeling specifically living microorganisms comprising the use of modified monosaccharide compounds” (CENTRE NATIONAL DE LA RECHERCHE SCIENTIFIQUE (CNRS), priority 2015, dated 2021).

How the values were obtained:
Format in all cases: cell-based
[1] = tested on: Listeria monocytogenes 1/2; conditions: for labeling (fluorescence, metabolic incorporation of the chemical reporter): 10 mM, 24 hours, CIP 82.110pT; for assimilation by the microorganism (in words): Listeria monocytogenes
[2] = tested on: bacteria and Fungi as well as amoebas; experiment: Labeling of living microorganisms, overall statement on all tested strains; conditions: broad range of bacteria and Fungi as well as amoebas
[3] = tested on: Streptococcus agalactiae; conditions: 10 mM, 24 hours; Clinical strain
[4] = tested on: Staphylococcus aureus aureus; conditions: for labeling (fluorescence, metabolic incorporation of the chemical reporter): 10 mM, 24 hours, IP 53-156; for assimilation by the microorganism (in words): Staphylococcus aureus aureus
[5] = tested on: Acanthamoebae castellanii; conditions: for labeling (fluorescence, metabolic incorporation of the chemical reporter): 10 mM, 24 hours, ATCC 30234; for assimilation by the microorganism (in words): Acanthamoebae castellanii
[6] = tested on: Aspergillus niger; conditions: for labeling (fluorescence, metabolic incorporation of the chemical reporter): 10 mM, 24 hours, Laboratory strain; for assimilation by the microorganism (in words): Aspergillus niger
[7] = tested on: Bacillus subtilis; conditions: for labeling (fluorescence, metabolic incorporation of the chemical reporter): 10 mM, 24 hours, Laboratory strain; for assimilation by the microorganism (in words): Bacillus subtilis
[8] = tested on: Escherichia coli O86; conditions: 10 mM, 24 hours; Laboratory strain
[9] = tested on: Geotrichum candidum; conditions: for labeling (fluorescence, metabolic incorporation of the chemical reporter): 10 mM, 24 hours, CNCM 1447-83; for assimilation by the microorganism (in words): Geotrichum candidum
[10] = tested on: Bacillus cereus (second entry); conditions: 10 mM, 24 hours; second Bacillus cereus line (Table 1 order: CIP 66.24T)
[11] = tested on: Enterococcus faecalis; conditions: for labeling (fluorescence, metabolic incorporation of the chemical reporter): 10 mM, 24 hours, Laboratory strain; for assimilation by the microorganism (in words): Enterococcus faecalis
[12] = tested on: Proteus mirabills; conditions: 10 mM, 24 hours; Clinical strain
[13] = tested on: Cronobacter sakazakii; conditions: 10 mM, 24 hours; CIP 103183T
[14] = tested on: Acinetobacter baumannii; conditions: 10 mM, 24 hours; ATCC 17978
[15] = tested on: Bacillus cereus paris; conditions: 10 mM, 24 hours; Laboratory strain
[16] = tested on: Serratia marcescens (second entry); conditions: 10 mM, 24 hours; second Serratia marcescens line (Table 1 order: Clinical strain)
[17] = tested on: Serratia marcescens (first entry); conditions: 10 mM, 24 hours; first Serratia marcescens line (Table 1 order: CIP 102446)
[18] = tested on: Bacillus cereus (first entry); conditions: 10 mM, 24 hours; first Bacillus cereus line (Table 1 order: Laboratory strain)
[19] = tested on: Enterococcus durans; conditions: 10 mM, 24 hours; Laboratory strain
[20] = tested on: Klebsiella pneumoniae (first entry); conditions: 10 mM, 24 hours; first Klebsiella pneumoniae line (Table 1 order: CIP 101114)
[21] = tested on: Salmonella typhimurium 12023; conditions: 10 mM, 24 hours; Laboratory strain
[22] = tested on: Staphylococcus epidermis; conditions: for labeling (fluorescence, metabolic incorporation of the chemical reporter): 10 mM, 24 hours, Laboratory strain
[23] = tested on: Escherichia coli K12; conditions: 10 mM, 24 hours; MG1655
[24] = tested on: Pseudomonas fluorescens Paris; conditions: 10 mM, 24 hours; Laboratory strain
[25] = tested on: Fusarium; conditions: for labeling (fluorescence, metabolic incorporation of the chemical reporter): 10 mM, 24 hours, CNCM 1149-76; for assimilation by the microorganism (in words): Fusarium
[26] = tested on: Vibrio cholerae; conditions: 10 mM, 24 hours; CIP 104151
[27] = tested on: Klebsiella pneumoniae (second entry); conditions: 10 mM, 24 hours; second Klebsiella pneumoniae line (Table 1 order: Clinical strain)
[28] = tested on: Legionella pneumophila sg6; conditions: 10 mM, 24 hours; LG 0846 3022
[29] = tested on: Staphylococcus aureus; conditions: for labeling (fluorescence, metabolic incorporation of the chemical reporter): 10 mM, 24 hours, Clinical strain; for assimilation by the microorganism (in words): Staphylococcus aureus
[30] = tested on: Providencia stuartii; conditions: 10 mM, 24 hours; Clinical strain
[31] = tested on: Neisseria gonorrhoeae; conditions: for labeling (fluorescence, metabolic incorporation of the chemical reporter): 10 mM, 24 hours, CIP 79.18T; for assimilation by the microorganism (in words): Neisseria gonorrhoeae
[32] = tested on: Staphylococcus saprophyticus; conditions: 10 mM, 24 hours; Clinical strain
[33] = tested on: Micrococcus luteus; conditions: for labeling (fluorescence, metabolic incorporation of the chemical reporter): 10 mM, 24 hours, Laboratory strain; for assimilation by the microorganism (in words): Micrococcus luteus
[34] = tested on: Stenotrophomonas maltophilia; conditions: 10 mM, 24 hours; Clinical strain
[35] = tested on: Candida albicans; conditions: for labeling (fluorescence, metabolic incorporation of the chemical reporter): 10 mM, 24 hours, Laboratory strain; for assimilation by the microorganism (in words): Candida albicans
[36] = tested on: Neisseria meningitides; conditions: 10 mM, 24 hours; CIP 107858
[37] = tested on: Legionella pneumophila sg1 Paris; conditions: 10 mM, 24 hours; CIP 33152

SMILES: [N-]=[N+]=NC[C@H]1OC(O)[C@@H](O)[C@@H]1O (stereo partly drawn) [Ara-N3, 5-Azido-5-deoxy-D-arabinofuranose]
- labeling (fluorescence, metabolic incorporation of the chemical reporter) [1]: +
- assimilation by the microorganism (in words) [1]: assimilated
- labeling of all tested microorganisms (in words) [2]: all tested microorganisms were labeled
- labeling (fluorescence, metabolic incorporation of the chemical reporter) [3]: +
- labeling (fluorescence, metabolic incorporation of the chemical reporter) [4]: +
- assimilation by the microorganism (in words) [4]: assimilated
- labeling (fluorescence, metabolic incorporation of the chemical reporter) [5]: +
- assimilation by the microorganism (in words) [5]: assimilated
- labeling (fluorescence, metabolic incorporation of the chemical reporter) [6]: +
- assimilation by the microorganism (in words) [6]: assimilated
- labeling (fluorescence, metabolic incorporation of the chemical reporter) [7]: +
- assimilation by the microorganism (in words) [7]: assimilated
- labeling (fluorescence, metabolic incorporation of the chemical reporter) [8]: +
- labeling (fluorescence, metabolic incorporation of the chemical reporter) [9]: +
- assimilation by the microorganism (in words) [9]: assimilated
- labeling (fluorescence, metabolic incorporation of the chemical reporter) [10]: +
- labeling (fluorescence, metabolic incorporation of the chemical reporter) [11]: +
- assimilation by the microorganism (in words) [11]: assimilated
- labeling (fluorescence, metabolic incorporation of the chemical reporter) [12]: +
- labeling (fluorescence, metabolic incorporation of the chemical reporter) [13]: +
- labeling (fluorescence, metabolic incorporation of the chemical reporter) [14]: +
- labeling (fluorescence, metabolic incorporation of the chemical reporter) [15]: +
- labeling (fluorescence, metabolic incorporation of the chemical reporter) [16]: +
- labeling (fluorescence, metabolic incorporation of the chemical reporter) [17]: +
- labeling (fluorescence, metabolic incorporation of the chemical reporter) [18]: +
- labeling (fluorescence, metabolic incorporation of the chemical reporter) [19]: +
- labeling (fluorescence, metabolic incorporation of the chemical reporter) [20]: +
- labeling (fluorescence, metabolic incorporation of the chemical reporter) [21]: +
- labeling (fluorescence, metabolic incorporation of the chemical reporter) [22]: +
- labeling (fluorescence, metabolic incorporation of the chemical reporter) [23]: +
- labeling (fluorescence, metabolic incorporation of the chemical reporter) [24]: +
- labeling (fluorescence, metabolic incorporation of the chemical reporter) [25]: +
- assimilation by the microorganism (in words) [25]: assimilated
- labeling (fluorescence, metabolic incorporation of the chemical reporter) [26]: +
- labeling (fluorescence, metabolic incorporation of the chemical reporter) [27]: +
- labeling (fluorescence, metabolic incorporation of the chemical reporter) [28]: +
- labeling (fluorescence, metabolic incorporation of the chemical reporter) [29]: +
- assimilation by the microorganism (in words) [29]: assimilated
- labeling (fluorescence, metabolic incorporation of the chemical reporter) [30]: +
- labeling (fluorescence, metabolic incorporation of the chemical reporter) [31]: +
- assimilation by the microorganism (in words) [31]: assimilated
- labeling (fluorescence, metabolic incorporation of the chemical reporter) [32]: +
- labeling (fluorescence, metabolic incorporation of the chemical reporter) [33]: +
- assimilation by the microorganism (in words) [33]: assimilated
- labeling (fluorescence, metabolic incorporation of the chemical reporter) [34]: +
- labeling (fluorescence, metabolic incorporation of the chemical reporter) [35]: +
- assimilation by the microorganism (in words) [35]: assimilated
- labeling (fluorescence, metabolic incorporation of the chemical reporter) [36]: +
- labeling (fluorescence, metabolic incorporation of the chemical reporter) [37]: +

SMILES: [N-]=[N+]=NC[C@@H](O)C1OC(O)(C(=O)O)CC(O)[C@H]1O (some centres unmarked) [Kdo-N3, reference compound]
- labeling (fluorescence, metabolic incorporation of the chemical reporter) [1]: −
- assimilation by the microorganism (in words) [1]: did not assimilate
- labeling (fluorescence, metabolic incorporation of the chemical reporter) [4]: −
- assimilation by the microorganism (in words) [4]: did not assimilate
- labeling (fluorescence, metabolic incorporation of the chemical reporter) [5]: −
- assimilation by the microorganism (in words) [5]: did not assimilate
- labeling (fluorescence, metabolic incorporation of the chemical reporter) [6]: −
- assimilation by the microorganism (in words) [6]: did not assimilate
- labeling (fluorescence, metabolic incorporation of the chemical reporter) [7]: −
- assimilation by the microorganism (in words) [7]: did not assimilate
- labeling (fluorescence, metabolic incorporation of the chemical reporter) [8]: +
- labeling (fluorescence, metabolic incorporation of the chemical reporter) [9]: −
- assimilation by the microorganism (in words) [9]: did not assimilate
- labeling (fluorescence, metabolic incorporation of the chemical reporter) [11]: −
- assimilation by the microorganism (in words) [11]: did not assimilate
- labeling (fluorescence, metabolic incorporation of the chemical reporter) [12]: +
- labeling (fluorescence, metabolic incorporation of the chemical reporter) [13]: +
- labeling (fluorescence, metabolic incorporation of the chemical reporter) [14]: +
- labeling (fluorescence, metabolic incorporation of the chemical reporter) [16]: +
- labeling (fluorescence, metabolic incorporation of the chemical reporter) [17]: +
- labeling (fluorescence, metabolic incorporation of the chemical reporter) [20]: +
- labeling (fluorescence, metabolic incorporation of the chemical reporter) [21]: +
- labeling (fluorescence, metabolic incorporation of the chemical reporter) [22]: −
- assimilation by the microorganism (in words) ([22]; Staphylococcus epidermis): did not assimilate
- labeling (fluorescence, metabolic incorporation of the chemical reporter) [23]: +
- labeling (fluorescence, metabolic incorporation of the chemical reporter) [24]: +
- labeling (fluorescence, metabolic incorporation of the chemical reporter) [25]: −
- assimilation by the microorganism (in words) [25]: did not assimilate
- labeling (fluorescence, metabolic incorporation of the chemical reporter) [26]: +
- labeling (fluorescence, metabolic incorporation of the chemical reporter) [27]: +
- labeling (fluorescence, metabolic incorporation of the chemical reporter) [28]: +
- labeling (fluorescence, metabolic incorporation of the chemical reporter) [29]: −
- assimilation by the microorganism (in words) [29]: did not assimilate
- labeling (fluorescence, metabolic incorporation of the chemical reporter) [30]: +
- labeling (fluorescence, metabolic incorporation of the chemical reporter) [31]: −
- assimilation by the microorganism (in words) [31]: did not assimilate
- labeling (fluorescence, metabolic incorporation of the chemical reporter) [33]: −
- assimilation by the microorganism (in words) [33]: did not assimilate
- labeling (fluorescence, metabolic incorporation of the chemical reporter) [34]: +
- labeling (fluorescence, metabolic incorporation of the chemical reporter) [35]: −
- assimilation by the microorganism (in words) [35]: did not assimilate
- labeling (fluorescence, metabolic incorporation of the chemical reporter) [36]: +
- labeling (fluorescence, metabolic incorporation of the chemical reporter) [37]: +
